Consider three compounds from article PMC4363177 (Bioorganic & medicinal chemistry, 2015).

In one assay the test system is 5-HT2A receptor. Particulars: cited from earlier work.
Assay [1] addresses human serotonin 5-HT2A receptor (Homo sapiens, UniProt P28223). The assay is described as follows: Radioligand competitive displacement binding, 5-HT2A.
Assay [2] has as its target human serotonin 5-HT2B receptor (Homo sapiens, UniProt P41595). The assay can be described thus: Radioligand competitive displacement binding, 5-HT2B.
The test system of the next assay is locomotor activity. Particulars: administered alone; cited from earlier work.

Sequence of human serotonin 5-HT2B receptor (P41595 whole entry): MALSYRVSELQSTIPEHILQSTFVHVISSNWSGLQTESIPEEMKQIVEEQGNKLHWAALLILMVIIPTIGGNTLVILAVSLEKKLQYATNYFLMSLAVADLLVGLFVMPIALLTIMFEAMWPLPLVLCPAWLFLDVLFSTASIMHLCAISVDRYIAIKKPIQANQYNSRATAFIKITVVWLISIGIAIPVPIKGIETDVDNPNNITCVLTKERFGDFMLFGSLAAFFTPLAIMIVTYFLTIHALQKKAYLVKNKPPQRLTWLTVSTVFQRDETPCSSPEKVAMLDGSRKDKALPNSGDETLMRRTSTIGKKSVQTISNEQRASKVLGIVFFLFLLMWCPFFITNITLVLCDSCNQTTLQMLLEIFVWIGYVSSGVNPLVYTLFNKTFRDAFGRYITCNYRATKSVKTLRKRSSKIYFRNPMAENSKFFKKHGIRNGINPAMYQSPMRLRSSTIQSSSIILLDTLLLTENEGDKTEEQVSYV
Sequence of human serotonin 5-HT2A receptor (P28223 whole entry): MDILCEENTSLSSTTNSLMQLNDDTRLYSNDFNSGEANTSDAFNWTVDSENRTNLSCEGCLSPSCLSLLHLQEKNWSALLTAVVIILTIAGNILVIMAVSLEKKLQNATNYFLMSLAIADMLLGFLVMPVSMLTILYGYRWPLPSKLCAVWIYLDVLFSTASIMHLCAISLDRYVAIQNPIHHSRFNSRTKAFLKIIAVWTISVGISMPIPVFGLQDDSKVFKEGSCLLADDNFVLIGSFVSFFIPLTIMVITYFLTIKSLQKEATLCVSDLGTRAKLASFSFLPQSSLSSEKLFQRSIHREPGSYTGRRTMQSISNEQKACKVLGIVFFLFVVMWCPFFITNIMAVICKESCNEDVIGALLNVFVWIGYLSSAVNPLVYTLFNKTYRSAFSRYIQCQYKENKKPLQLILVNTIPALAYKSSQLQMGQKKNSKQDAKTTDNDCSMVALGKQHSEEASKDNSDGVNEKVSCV

Consider `CN(C)[C@@H]1Cc2ccccc2[C@@H](c2ccccc2)C1` (relative stereo) [(−)-trans-PAT, (2S, 4R)-(−)-trans-4-phenyl-N,N-dimethyl-1,2,3,4-tetrahydronaphthalen-2-amine], for which, in the assay with 5-HT2A receptor, the “functional activity at 5-HT2A receptors” value is “inverse agonist (and competitive antagonist) activity”.

On to `CN(C)[C@@H]1Cc2ccccc2[C@@H](c2ccccc2)C1` [(+)-trans-PAT, trans-4-phenyl-N,N-dimethyl-1,2,3,4-tetrahydronaphthalen-2-amine], for which the Ki was 0.47 µM in assay [1] and 0.24 µM in assay [2].

For `CN1CCN(C2=Nc3cc(Cl)ccc3Nc3ccccc32)CC1` [clozapine], the “effect on locomotor activity” value with locomotor activity is “suppressed locomotor activity”.
